Measurements published in the supplement of paper PMC10307832.

Assays:
Assay in all cases: relative viability (nuclei count vs DMSO), 5 days (fraction); higher = more cells survive
[1] = compound: C[C@@]1(C(=O)Nc2ccc(F)nc2)CCCN1c1nc(Nc2cc(C3CC3)n[nH]2)c2cccn2n1 + O=C(c1cc(Cc2n[nH]c(=O)c3ccccc23)ccc1F)N1CCN(C(=O)C2CC2)CC1 [Olaparib] (partner 8 µM)
In short: (§1)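 After 5 days of treatment, lung cancer cells in 1536-well plates were fixed and stained in a single step (final 0.05% Triton X-100, 1% formaldehyde, 1 ug/ml Hoechst) and their nuclei counted on 4× images. Treatment had been applied by pin tool the day after seeding as one drug alone or as a fixed anchor-drug dose with five library-drug doses (not always all listed) in √10 steps. Relative viability is the nuclei count of treated wells divided by that of vehicle wells, and values are medians of duplicate plates.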

Motesanib + Trametinib = compound: CC1(C)CNc2cc(NC(=O)c3cccnc3NCc3ccncc3)ccc21 [Motesanib] + CC(=O)Nc1cccc(-n2c(=O)n(C3CC3)c(=O)c3c(Nc4ccc(I)cc4F)n(C)c(=O)c(C)c32)c1 [Trametinib] (partner 0.02 µM)
In short: as §1

Motesanib + Luminespib = compound: CC1(C)CNc2cc(NC(=O)c3cccnc3NCc3ccncc3)ccc21 [Motesanib] + CCNC(=O)c1noc(-c2cc(C(C)C)c(O)cc2O)c1-c1ccc(CN2CCOCC2)cc1 [Luminespib] (partner 0.01 µM)
In short: as §1

[2] = compound: C[C@@]1(C(=O)Nc2ccc(F)nc2)CCCN1c1nc(Nc2cc(C3CC3)n[nH]2)c2cccn2n1 + CS(=O)(=O)N1CCN(Cc2cc3nc(-c4cccc5[nH]ncc45)nc(N4CCOCC4)c3s2)CC1 [Pictilisib] (partner 1 µM)
In short: as §1

Row | Cell Line | relative viability ([1]; first compound 0.04 µM) | relative viability ([1]; first compound 0.1265 µM) | relative viability ([1]; first compound 0.4 µM) | relative viability ([1]; first compound 1.265 µM) | relative viability (Motesanib + Trametinib; first compound 0.01 µM) | relative viability (Motesanib + Trametinib; first compound 0.03162 µM) | relative viability (Motesanib + Trametinib; first compound 0.1 µM) | relative viability (Motesanib + Trametinib; first compound 0.3162 µM) | relative viability (Motesanib + Trametinib; first compound 1 µM) | relative viability (Motesanib + Luminespib; first compound 0.01 µM) | relative viability (Motesanib + Luminespib; first compound 0.03162 µM) | relative viability (Motesanib + Luminespib; first compound 0.1 µM) | relative viability (Motesanib + Luminespib; first compound 0.3162 µM) | relative viability (Motesanib + Luminespib; first compound 1 µM) | relative viability ([2]; first compound 0.04 µM) | relative viability ([2]; first compound 0.1265 µM) | relative viability ([2]; first compound 0.4 µM) | relative viability ([2]; first compound 1.265 µM)
1 | 201T | 0.755 | 0.725 | 0.729 | 0.9 | 0.743 | 0.71 | 0.736 | 0.722 | 0.742 | 1.02 | 1.02 | 1.11 | 1.01 | 1.05 | 0.638 | 0.622 | 0.554 | 0.614
2 | A549 | 0.293 | 0.17 | 0.148 | 0.244 | – | – | – | – | – | – | – | – | – | – | 0.283 | 0.292 | 0.172 | 0.148
3 | A-427 | 0.666 | 0.663 | 0.603 | 0.529 | 0.742 | 0.702 | 0.774 | 0.775 | 0.762 | 0.872 | 1.05 | 0.769 | 1.24 | 1.05 | 0.79 | 0.679 | 0.739 | 0.705
4 | ABC-1 | 0.664 | 0.584 | 0.774 | 0.668 | – | – | – | – | – | 0.637 | 0.867 | 0.556 | 0.716 | 0.866 | 0.598 | 0.6 | 0.467 | 0.394
5 | BEN | 1.09 | 1.14 | 0.97 | 0.988 | 0.996 | 1.01 | 0.983 | 1.01 | 1.1 | 0.331 | 0.46 | 0.393 | 0.498 | 0.387 | 0.614 | 0.573 | 0.606 | 0.614
6 | CAL-12T | 0.729 | 0.751 | 0.583 | 0.449 | 0.324 | 0.316 | 0.33 | 0.402 | 0.419 | 0.371 | 0.375 | 0.195 | 0.567 | 0.175 | 0.41 | 0.395 | 0.463 | 0.304
7 | COR-L23 | 0.315 | 0.367 | 0.234 | 0.188 | 0.352 | 0.654 | 0.602 | 0.708 | 0.74 | 0.605 | 0.694 | 0.728 | 0.665 | 0.738 | 0.518 | 0.463 | 0.31 | 0.335
8 | COR-L 105 | 0.74 | 0.604 | 0.571 | 0.595 | 0.451 | 0.383 | 0.41 | 0.422 | 0.448 | 0.737 | 0.894 | 0.896 | 0.73 | 0.843 | 0.414 | 0.328 | 0.26 | 0.241
9 | Calu-6 | 0.612 | 0.644 | 0.543 | 0.384 | – | – | – | – | – | – | – | – | – | – | 0.965 | 0.833 | 0.695 | 0.425
10 | ChaGo-K-1 | 0.414 | 0.398 | 0.402 | 0.422 | 0.894 | 0.889 | 0.91 | 0.942 | 0.95 | 0.525 | 0.656 | 0.589 | 0.552 | 0.588 | 0.643 | 0.662 | 0.849 | 0.371
11 | EBC-1 | 0.695 | 0.666 | 0.61 | 0.391 | – | – | – | – | – | – | – | – | – | – | 0.32 | 0.231 | 0.241 | 0.162
12 | EKVX | 0.874 | 0.644 | 0.635 | 0.735 | 0.303 | 0.414 | 0.344 | 0.459 | 0.522 | 0.847 | 0.836 | 0.833 | 0.877 | 0.826 | 0.354 | 0.328 | 0.33 | 0.409
13 | EMC-BAC-2 | 0.406 | 0.368 | 0.312 | 0.334 | 0.756 | 0.909 | 0.861 | 0.797 | 0.948 | 1.2 | 1.16 | 1.14 | 1.16 | 1.05 | 0.514 | 0.498 | 0.358 | 0.495
14 | EPLC-272H | 0.792 | 0.513 | 0.489 | 0.571 | 0.287 | 0.289 | 0.286 | 0.299 | 0.341 | 0.302 | 0.268 | – | 0.233 | 0.266 | 0.251 | 0.18 | 0.168 | 0.174
15 | H3255 | 0.638 | 0.643 | 0.523 | 0.548 | 0.533 | 0.681 | 0.684 | 0.626 | 0.67 | 0.872 | 0.954 | 0.942 | 1.06 | 0.902 | 0.49 | 0.423 | 0.415 | 0.371
16 | HARA | 0.81 | 0.74 | 0.59 | 0.656 | 0.649 | 0.454 | 0.598 | 0.918 | 0.441 | 0.894 | 0.628 | 0.786 | 0.871 | 0.612 | 0.366 | 0.208 | 0.215 | 0.294
17 | HCC-15 | 0.663 | 0.614 | 0.611 | 0.635 | 0.377 | 0.335 | 0.364 | 0.406 | 0.376 | 0.33 | 0.38 | 0.314 | 0.278 | 0.545 | 0.715 | 0.573 | 0.747 | 0.745
18 | HCC-44 | 0.94 | 0.879 | 0.867 | 0.911 | 1.01 | 1.06 | 1.05 | 1.12 | 1.19 | 1.07 | 0.964 | 0.884 | 1.24 | 1.2 | 0.532 | 0.386 | 0.841 | 0.328
19 | HCC-78 | 0.661 | 1.12 | 0.375 | 0.427 | 0.653 | 0.671 | 0.701 | – | 0.735 | – | – | – | – | – | 0.204 | 0.148 | 0.172 | 0.189
20 | HCC-366 | 0.364 | 0.256 | 0.254 | 0.215 | 0.396 | 0.302 | 0.282 | 0.385 | 0.334 | – | – | – | – | – | 0.105 | 0.104 | 0.101 | 0.12
